Results on 24 compounds are retold here after the supplement of paper PMC5412046.

Assay [1] deals with SB.mhdgc-1. The assay is described as follows: viability at highest tested concentration (MAXR) relative to DMSO; higher = less cytotoxic. Conditions: SB.mhdgc-1 (hereditary c.1380delA CDH1 gastric cancer). Summed up: (§1)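 Using a pintool, 23 nL of compound in DMSO was transferred at 11 threefold-diluted concentrations onto patient-derived gastric cancer cells, hereditary or sporadic, plated at 500 cells in 5 μL medium per 1536 well. CellTiter-Glo luminescence was read after 48 h. Each value is viability normalised to DMSO, either at the highest concentration or as trapezoidal area under the curve.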

The test system of assay [2] is SB.msgc-1. The description is as above. To be noted: SB.msgc-1 (sporadic gastric cancer). The method, boiled down:
as §1

Assay [3] concerns SB.mhdgc-1. The assay can be described thus: area under the dose-response curve of % viability (trapezoidal, 11 doses) (% viability x log10 concentration); higher = less cytotoxic. To be noted: SB.mhdgc-1 (hereditary c.1380delA CDH1 gastric cancer). Summed up:
as §1

Assay [4] relates to SB.msgc-1. The description is as above. Conditions: SB.msgc-1 (sporadic gastric cancer). Summed up:
as §1

Structures can show the parent of a compound that is named as a salt.

In general, viability refers to a read-out of living cells in per cent, often relative to untreated cells. As for `CC1(C)[C@H](C(=O)O)N2C(=O)C[C@H]2[S+]1(=O)[O-]` [Sulbactam] (top concentration 46.0829 µM), the values for the viability in assay [1] and in assay [2] were 80.7% and 91.3%, respectively. The “area under the dose-response curve” value in assay [3] was found to be 535; in assay [4], 562.
Regarding `Cc1cccc(C)c1OCC(=O)N[C@@H](Cc1ccccc1)[C@@H](O)C[C@H](Cc1ccccc1)NC(=O)[C@H](C(C)C)N1CCCNC1=O` [Lopinavir] (top concentration 46.0829 µM), the viability in assay [1] and in assay [2] was 53.2% each time. The figures for the “area under the dose-response curve” value in assay [3] and in assay [4] were 453 and 497, respectively.
As for `CC1SC/2=C(C(O)=O)/C(=O)C3=CC(=C(C=C3N12)N4CCN(CC4)C\C5=C(C)\OC(=O)O5)F` (stereo unspecified) [Prulifloxacin] (top concentration 46.0829 µM), the results for the viability in assay [1] and in assay [2] were 93.9% and 106%, respectively. Moreover, the results for the “area under the dose-response curve” value in assay [3] and in assay [4] were 514 and 582, respectively.
For the compound `COc1ccccc1OCC(O)CN1CCN(CC(=O)Nc2c(C)cccc2C)CC1` (stereo unspecified) [Ranolazine] (top concentration 46.0829 µM), the viability is 72% in assay [1] and 103% in assay [2]. For the same compound, the results for the “area under the dose-response curve” value in assay [3] and in assay [4] were 539 and 519, respectively.
As to `CCCCc1ccc(N[S+](=O)([O-])c2ccc(C)c(C(=O)N3CCN(c4cccc(C)c4C)CC3)c2)cc1` [IDH-001] (top concentration 46.0829 µM), the viability in assay [1] amounted to 72.9%; in assay [2], 37.7%. The “area under the dose-response curve” value in assay [3] was determined as 571; in assay [4], 511.
In the case of `NC(=O)c1cccc(-c2cccc(OC(=O)NC3CCCCC3)c2)c1` [KDS-4103] (top concentration 46.0829 µM), the viability in assay [1] came to 51.6%; in assay [2] it was 73.9%. For the same compound, the figures for the “area under the dose-response curve” value in assay [3] and in assay [4] were 463 and 544, respectively.
Consider `COc1ccc2cc([C@H](C)C(=O)O)ccc2c1` [Naproxen sodium] (top concentration 46.0829 µM), for which the viability in assay [1] came to 107%; in assay [2] it was 113%. Also, the entries for the “area under the dose-response curve” value in assay [3] and in assay [4] were 563 and 587, respectively.
Take `O=C(O)C1(Cc2cccc(Nc3nccs3)n2)CCC(Oc2cccc(Cl)c2F)CC1` (stereo unspecified) [MK-5108] (top concentration 46.0829 µM): the viability in assay [1] is 110%; in assay [2], 107%. Moreover, the “area under the dose-response curve” value was determined as 355 in assay [3] and 485 in assay [4].
The matching figures for `N=C(N)c1ccc(OCCCCCOc2ccc(C(=N)N)cc2)cc1` [Pentamidine isethionate] (top concentration 46.0829 µM): 53.8%, 10.8%, 464 and 509.
Take `NC/1=N/C2=C([NH]C=N2)C(=S)N1` [Tioguanine] (top concentration 46.0829 µM): the values for the viability in assay [1] and in assay [2] were 60.5% and 23.4%, respectively. In addition, the “area under the dose-response curve” value in assay [3] amounted to 467; in assay [4], 445.
For the compound `CN[C@H]1CCC2=CC(=C(OC)C(=C2C/3=C/C=C(OC)\C(=O)/C=C13)OC)OC` [Demecolcine] (top concentration 46.0829 µM), the viability amounted to 33.3% in assay [1] and 40% in assay [2]. For the same compound, the “area under the dose-response curve” value in assay [3] worked out at 278; in assay [4] it was 246.
Regarding `CNC(=O)c1c(F)cccc1Nc1nc(Nc2cc3c(cc2OC)CCN3C(=O)CN(C)C)nc2[nH]ccc12` (top concentration 46.0829 µM), the figures for the viability in assay [1] and in assay [2] were 1.17% and 2.95%, respectively. In addition, the “area under the dose-response curve” value in assay [3] amounted to 302; in assay [4], 460.
For `CNC1CCCN(c2c(F)cc3c(=O)c(C(=O)O)cn(C4CC4)c3c2OC)C1` (stereo unspecified) [Balofloxacin] (top concentration 46.0829 µM), in that order: 85.9%, 51.7%, 518 and 525.
The matching figures for `Nc1ncnc2c1ncn2[C@@H]1O[C@H](CO)[C@@H](O)[C@H]1O` [Adenosine] (top concentration 46.0829 µM): 48.9%, 8.07%, 451 and 454.
As to `c1ccc(-c2oc3ncnc(NC[C@@H]4CCCO4)c3c2-c2ccccc2)cc1` [AIM-100] (top concentration 46.0829 µM), the results for the viability in assay [1] and in assay [2] were 11.8% and 34.9%, respectively. The “area under the dose-response curve” value stood at 481 in assay [3] and 426 in assay [4].
Take `O=C(O)CCn1c2c(c3ccccc31)C[C@H](N[S+](=O)([O-])c1ccc(F)cc1)CC2` [Ramatroban] (top concentration 46.0829 µM): the viability came to 96.4% in assay [1] and 98.6% in assay [2]. Further, the “area under the dose-response curve” value in assay [3] was found to be 482; in assay [4], 568.
Turning to `CC(C)(Oc1ccc(C2CC2(Cl)Cl)cc1)C(=O)O` (stereo unspecified) [Ciprofibrate] (top concentration 92.1659 µM), the viability in assay [1] was found to be 26.6%; in assay [2] it was 58%. The “area under the dose-response curve” value in assay [3] is 514; in assay [4], 588.
As to `C/C=C(/C(=C/C)c1ccc(O)cc1)c1ccc(O)cc1` [Dienestrol] (top concentration 46.0829 µM), the viability in assay [1] is 34.3%; in assay [2], 70.9%. Moreover, the “area under the dose-response curve” value in assay [3] amounted to 527; in assay [4] it was 457.
Consider `CC1=C(/C=C/C(C)=C/C=C/C(C)=C/C=C/C=C(C)/C=C/C=C(C)/C=C/C2=C(C)CCCC2(C)C)C(C)(C)CCC1` [beta-Carotene] (top concentration 46.0829 µM), for which the viability worked out at 49.5% in assay [1] and 7.48% in assay [2]. The figures for the “area under the dose-response curve” value in assay [3] and in assay [4] were 516 and 463, respectively.
With `COC(=O)c1ccc2c(c1)NC(=O)/C2=C(\Nc1ccc(N(C)C(=O)CN2CCN(C)CC2)cc1)c1ccccc1` [Vargatef] (top concentration 46.0829 µM), the viability in assay [1] stood at 1.22%; in assay [2], 6.94%. For the same compound, the “area under the dose-response curve” value was found to be 418 in assay [3] and 409 in assay [4].
Take `O=C1NC(=O)[C@@H](c2cn3c4c(cccc24)CCC3)[C@@H]1c1c[nH]c2ccccc12` [Tivantinib] (top concentration 46.0829 µM): the viability in assay [1] came out at 39.4%; in assay [2] it was 36.2%. For the same compound, the “area under the dose-response curve” value was found to be 369 in assay [3] and 392 in assay [4].
The matching figures for `CCN[C@H]1C[C@H](C)[S+](=O)([O-])c2sc([S+](N)(=O)[O-])cc21` [Dorzolamide hydrochloride] (top concentration 46.0829 µM): 138%, 98.2%, 526 and 539.
On to `Cc1csc(NC(=O)c2sc3nc4c(c(C(F)(F)F)c3c2N)CCC4)n1` [Irestatin 9389] (top concentration 46.0829 µM), for which the results for the viability in assay [1] and in assay [2] were 42.8% and 42.3%, respectively. The “area under the dose-response curve” value in assay [3] was determined as 481; in assay [4] it was 490.
Take `O=C(NCC1CCOCC1)c1cnc(Nc2ccc(Cl)cc2Cl)nc1C(F)(F)F` (top concentration 46.0829 µM): the viability is 7.1% in assay [1] and 6.36% in assay [2]. Moreover, the “area under the dose-response curve” value in assay [3] came to 519; in assay [4], 539.
